{"source": "patent US9084419B2", "about": "“Method for reducing temperature stress of plants” (SUMITOMO CHEMICAL COMPANY, LIMITED, priority 2009, dated 2015)", "key": {"wheat (cultivar: Apogee) [1]": {"tested_on": "wheat (cultivar: Apogee)", "test": "Reduction of high temperature stress by wheat seed treatment (plant weight), Test Example 2", "assay_type": "in vivo", "conditions": "40° C. (day)/30° C. (night) for 14 days; for Fresh weight of the above-ground part: 32nd day after seeding", "experimental": "A Blank slurry solution containing 5% (V/V) color coat red (Becker Underwood, Inc.), 5% (V/V) CF-Clear (Becker Underwood, Inc.) and 0.4% Maxim XL (Syngenta) was prepared. A sodium salt of the compound A was dissolved in the Blank slurry to obtain a slurry solution so as to control the amount of the sodium salt within a range from 0.5 mg to 2 mg per 1 g of seeds. Using a seed treating machine (HEGE11, manufactured by Hans-Ulrich Hege), seed coating was carried out by mixing 1.3 ml of the slurry solution with 50 g of wheat seeds (cultivar: Apogee) and the seeds were dried. As a control, seed coating was carried out using the Blank slurry solution in place of the slurry solution to obtain seeds for non-treated group. The coated seeds (5 seeds each) were sown in the growing soil (AISAI) in a plastic pot and then cultivated for 18 days under the conditions of a temperature of 20 to 25° C., a humidity of 50 to 75%, an illuminance of 5,300 lx, and a day length of 16 hours. Before the stress test, thinning was carried out to control the number of seedlings to 3 per pot. The above test plants on the 18th day after seeding were cultivated for 14 days under the conditions of a temperature of 40° C. (day)/30° C. (night), a humidity of 63% (day)/70% (night), an illuminance of 7,100 lx, and a day length of 16 hours. After the stress test, on the 32nd day after seeding, fresh weight of the above-ground part of test plants was examined for 4 to 7 pots."}, "[2]": {"tested_on": "Rice (cultivar: NIHOMBARE)", "test": "Reduction of low temperature stress in hydroponics of rice", "assay_type": "in vivo", "conditions": "hydroponic culture medium; stress exposed group, 2 to 4° C. for 3 to 7 days", "experimental": "Rice seeds (cultivar: NIHOMBARE) are immersed in distilled water containing 1,000 ppm of Benlate and then incubated at 30° C. for one day. The seeds are washed with distilled water, incubated in distilled water for one day and then subjected to a forced germination treatment. In the bottom of a 288-well plug tray, cotton wool is spread and then the seeds subjected to the forced germination treatment are sown. A hydroponic culture medium (8-fold diluted Kimura B hydroponic culture solution) is added thereto, followed by cultivation for 3 to 10 days under the conditions of a temperature of 28° C. (day)/23° C. (night), a humidity of 60%, an illuminance of 7,100 lx, and a day length of 12 hours. A DMSO solution having a concentration 1,000 times of each test concentration of any one of the compounds A to G is prepared and then diluted with a hydroponic culture medium. An aqueous solution (250,000 ppm) of a sodium salt of the compound A is diluted with the hydroponic culture medium to prepare a liquid having a test concentration. The above rice seedling is transferred to these hydroponic culture media containing the compound, and then cultivated for 7 to 10 days under the conditions of a temperature of 28° C. (day)/23° C. (night), a humidity of 60%, an illuminance of 7,100 lx, and a day length of 12 hours. Using a hydroponic culture medium containing 0.1% DMSO added therein as a control of any one of the compounds A to G and using a hydroponic culture medium as a control of the sodium salt of the compound A, the above rice seedlings are cultivated to form a non-treated group. The seedlings during the treatment with the present compound are cultivated for 3 to 7 days under the conditions of a temperature of 2 to 4° C., a humidity of 40 to 70%, an illuminance of 3,500 lx, and a day length of 12 hours in the stress exposed group, and under the conditions of a temperature of 25 to 30° C., a humidity of 50 to 75%, an illuminance of 4,500 lx, and a day length of 12 hours in the stress non-exposed group. After the stress test, the plant length and the weight of the above-ground part are examined. Using a pulse modulation chlorophyll fluorometer (MAXI-IMAGING-PAM, WALZ), the chlorophyll fluorescence (Fv/Fm) is measured."}, "wheat (cultivar: Apogee) [3]": {"tested_on": "wheat (cultivar: Apogee)", "test": "Reduction of high temperature stress by wheat foliage spraying treatment (plant weight)", "assay_type": "in vivo", "conditions": "foliage spray, 0.5 mg in 50 ml; 45° C., 17 hours; 4 days after stress", "experimental": "Wheat (cultivar: Apogee) seeds were sown in the growing soil (AISAI) in a plastic pot ([…]×58 mm in height) and then cultivated for one week under the conditions of a temperature of 20 to 25° C., a humidity of 50 to 75%, an illuminance of 5,300 lx, and a day length of 16 hours.\nA flowable formulation of the compound A was obtained by adding about 120 mg of a mixture of white carbon and a polyoxyethylene alkyl ether sulfate ammonium salt (weight ratio of 1:1) and 300 μl of water to 0.5 mg of the compound A, followed by fine grinding using a wet grinding method. The obtained flowable formulation was diluted with 50 ml of water to obtain a spray liquid. After adding 0.2% RINO as a sticker to the spray liquid, a sufficient amount (45 ml per 6 pots) was sprayed using an automatic spraying machine. As a control, a flowable formulation not containing the compound A was prepared and then sprayed to the non-treated group. Under the conditions of a temperature of 20 to 25° C., a humidity of 50 to 75%, an illuminance of 5,300 lx, and a day length of 16 hours, cultivation was carried out for 2 days.\nThe above test plants having been subjected to the spraying treatment were put in an artificial climate chamber set to the following conditions, and a stress test was carried out.\nTemperature: 45° C., 17 hours, Illuminance: 6,500 to 7,900 lx, and Humidity: 50%. […]"}, "[4]": {"tested_on": "Tomato (cultivar: Micro-Tom)", "test": "Reduction of high temperature stress by tomato soil irrigation treatment (fruit setting rate)", "assay_type": "in vivo", "conditions": "soil irrigation twice, 50 ml per seedling; 40° C. (day)/30° C. (night) for 7 days; 13 days after stress", "experimental": "Tomato seeds (cultivar: Micro-Tom) were sown in the growing soil (AISAI) in a plastic pot and then cultivated in a greenhouse (set at a temperature of 25° C.) for about 4 weeks. A soil irrigation treatment was carried out twice, using an aqueous solution of a sodium salt of the compound A in an amount of 50 ml per seedling, on the 15th day and the 22nd day after seeding. As a control, a soil irrigation treatment was carried out using distilled water in an amount of 50 ml per seedling to form a non-treated group. After the irrigation treatment, plants cultivated up to the period when a 1st flower cluster blooms (1 to 2 flowers bloom(s), on the 32nd day after seeding) were cultivated for 7 days under the conditions of a temperature of 40° C. (day)/30° C. (night), a humidity of 63% (day)/70% (night), an illuminance of 7,100 lx, and a day length of 16 hours in the stress exposed group, while plants were cultivated for 7 days in a greenhouse (set at a temperature of 25° C.) in the stress non-exposed group. After the stress test, the test plants were cultivated for 13 days in a greenhouse (set at a temperature of 25° C.), the number of flower setting and the number of fruit setting were counted to determine a fruit setting rate (%) (number of fruit setting/number of flower setting×100)."}, "roots": {"tested_on": "roots", "conditions": "known from JP 4,087,942, JP 2001-139405, Plant and Soil 255: 67-75 (2003); cited from earlier work"}, "wheat (cultivar: Apogee) [5]": {"tested_on": "wheat (cultivar: Apogee)", "test": "Reduction of high temperature stress by wheat seed treatment (plant weight), Test Example 10", "assay_type": "in vivo", "conditions": "seed coating 5 mg per 1 g of seeds; 36° C. (day)/32° C. (night) for 19 days; 36th day after seeding", "experimental": "A Blank slurry solution containing 5% (V/V) color coat red (Becker Underwood, Inc.), 5% (V/V) CF-Clear (Becker Underwood, Inc.) and 0.4% Maxim XL (Syngenta) was prepared. The compound C (methyl 4-oxo-4-(2-phenylethyl)aminobutyrate) or the compound E (5-oxo-5-[2-(3-indolyl)ethyl]aminovaleric acid) was dissolved in the Blank slurry to obtain a slurry solution so as to control the amount of the compound to be 5 mg per 1 g of seeds. Using a 50-ml conical tube, seed coating was carried out by mixing 1.3 ml of the slurry solution with 50 g of wheat seeds (cultivar: Apogee) and the seeds were dried. As a control, seed coating was carried out using the Blank slurry solution in place of the slurry solution to obtain seeds for non-treated group. The coated seeds (5 seeds each) were sown in the growing soil (AISAI) in a plastic pot and then cultivated in a greenhouse (set at a temperature of 18° C. (day)/15° C. (night)) for 17 days. Before the stress test, thinning was carried out to control the number of seedlings to 3 per pot.\nThe above test plants on the 17th day after seeding were cultivated for 19 days in an artificial climate chamber under the conditions of a temperature of 36° C. (day)/32° C. (night), a humidity of 50% (day)/60% (night), an illuminance of 7,000 lx, and a day length of 12 hours. […]"}}, "data": [{"smiles": "O=C([O-])CCC(=O)NCCc1ccccc1.[Na+]", "note": "[Compound A, Na salt]", "values": [{"measurement": "Percentage relative to non-treated group (fresh weight of the above-ground part)", "setting": "wheat (cultivar: Apogee) [1]; seed coating 0.5 mg/g of seeds", "value": 150, "unit": "%"}, {"measurement": "Fresh weight of the above-ground part", "setting": "wheat (cultivar: Apogee) [1]; seed coating 0.5 mg/g of seeds", "value": 0.87, "unit": "g/3 seedlings"}, {"measurement": "Percentage relative to non-treated group (fresh weight of the above-ground part)", "setting": "wheat (cultivar: Apogee) [1]; seed coating 1.0 mg/g of seeds", "value": 140, "unit": "%"}, {"measurement": "Fresh weight of the above-ground part", "setting": "wheat (cultivar: Apogee) [1]; seed coating 1.0 mg/g of seeds", "value": 0.77, "unit": "g/3 seedlings"}, {"measurement": "Percentage relative to non-treated group (fresh weight of the above-ground part)", "setting": "wheat (cultivar: Apogee) [1]; seed coating 2.0 mg/g of seeds", "value": 140, "unit": "%"}, {"measurement": "Fresh weight of the above-ground part", "setting": "wheat (cultivar: Apogee) [1]; seed coating 2.0 mg/g of seeds", "value": 0.81, "unit": "g/3 seedlings"}, {"measurement": "chlorophyll fluorescence (Fv/Fm) vs non-treated group", "setting": "[2]", "value": "increase"}, {"measurement": "plant length vs non-treated group", "setting": "[2]", "value": "increase"}, {"measurement": "weight of the above-ground part vs non-treated group", "setting": "[2]", "value": "increase"}]}, {"smiles": "O=C(O)CCC(=O)NCCc1ccccc1", "note": "[compound A, 4-oxo-4-(2-phenylethyl)aminobutyric acid]", "values": [{"measurement": "fresh weight of the above-ground part vs non-treated group", "setting": "wheat (cultivar: Apogee) [3]", "value": "increased"}, {"measurement": "visual evaluation of high temperature stress-induced withering and dying vs non-treated group", "setting": "wheat (cultivar: Apogee) [3]", "value": "alleviation of high temperature stress-induced withering and dying was observed"}, {"measurement": "fruit setting rate vs non-treated group", "setting": "[4]", "value": "a decrease in fruit setting rate was remarkably alleviated"}, {"measurement": "activity to promote growth of roots", "setting": "roots", "value": "have activity to promote growth of roots"}]}, {"smiles": "COC(=O)CCC(=O)NCCCCc1ccccc1", "note": "[compound B, methyl 4-oxo-4-(4-phenylbutyl)aminobutyrate]", "values": [{"measurement": "chlorophyll fluorescence (Fv/Fm) vs non-treated group", "setting": "[2]", "value": "increase"}, {"measurement": "plant length vs non-treated group", "setting": "[2]", "value": "increase"}, {"measurement": "weight of the above-ground part vs non-treated group", "setting": "[2]", "value": "increase"}]}, {"smiles": "COC(=O)CCC(=O)NCCc1ccccc1", "note": "[compound C, methyl 4-oxo-4-(2-phenylethyl)aminobutyrate]", "values": [{"measurement": "fresh weight of the above-ground part vs non-treated group", "setting": "wheat (cultivar: Apogee) [5]", "value": "increased"}]}, {"smiles": "O=C(O)CCCC(=O)NCCc1c[nH]c2ccccc12", "note": "[compound E, 5-oxo-5-[2-(3-indolyl)ethyl]aminovaleric acid]", "values": [{"measurement": "fresh weight of the above-ground part vs non-treated group", "setting": "wheat (cultivar: Apogee) [5]", "value": "increased"}]}]}
